Assay [1] concerns the target T1, hTRPV1 (Homo sapiens, UniProt Q8NER1). Description: hTRPV1 antagonism of capsaicin. The class given is cell-based. The note with it: for fold loss in antagonistic potency compared to the corresponding parent (1 or 2): less potent than parent.
Assay [2] addresses T1, hTRPV1. As to the kind of experiment: hTRPV1 antagonism of pH activation. The class given is cell-based. The note with it: heat (45 °C), NADA.

T1 sequence (Q8NER1 whole entry): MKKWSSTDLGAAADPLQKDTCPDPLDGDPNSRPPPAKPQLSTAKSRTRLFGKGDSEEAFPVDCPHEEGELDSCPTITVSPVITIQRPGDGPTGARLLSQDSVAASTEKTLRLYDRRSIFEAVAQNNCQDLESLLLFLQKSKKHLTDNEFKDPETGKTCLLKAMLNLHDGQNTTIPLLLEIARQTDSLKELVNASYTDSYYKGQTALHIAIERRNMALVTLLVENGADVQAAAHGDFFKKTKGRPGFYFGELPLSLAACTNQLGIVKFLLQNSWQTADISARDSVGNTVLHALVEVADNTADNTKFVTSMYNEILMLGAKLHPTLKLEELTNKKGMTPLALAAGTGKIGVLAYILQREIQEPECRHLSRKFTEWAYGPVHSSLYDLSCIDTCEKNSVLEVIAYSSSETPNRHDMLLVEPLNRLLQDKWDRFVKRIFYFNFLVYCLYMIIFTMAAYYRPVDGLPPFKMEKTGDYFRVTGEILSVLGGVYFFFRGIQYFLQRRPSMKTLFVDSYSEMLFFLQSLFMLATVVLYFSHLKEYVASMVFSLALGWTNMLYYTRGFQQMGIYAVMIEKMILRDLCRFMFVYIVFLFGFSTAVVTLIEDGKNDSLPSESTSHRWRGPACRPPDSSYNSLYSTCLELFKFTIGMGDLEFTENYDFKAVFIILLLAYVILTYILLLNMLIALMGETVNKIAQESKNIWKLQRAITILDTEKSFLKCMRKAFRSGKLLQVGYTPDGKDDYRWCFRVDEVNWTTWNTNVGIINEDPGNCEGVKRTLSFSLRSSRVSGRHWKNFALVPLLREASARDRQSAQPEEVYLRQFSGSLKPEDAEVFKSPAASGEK

Take `CS(=O)(=O)Nc1ccc(C(C(=O)NCc2ccc(C(F)(F)F)nc2SC2CCCCC2)C2CCCC2)cc1F` (stereo not drawn) [Compound 23]: the “fold loss in antagonistic potency compared to the corresponding parent (1 or 2)” value (“fold loss in antagonistic potency” for short) at hTRPV1 [1] is recorded as greater than 100 fold.
On the same count and under the same terms, next, `Cc1ccc(C(C(=O)NCc2ccc(C(F)(F)F)nc2N2CCC(C)CC2)c2ccc(NS(C)(=O)=O)c(F)c2)cc1` (stereo not drawn) [Compound 36]: 3–8 fold.
Still for that read-out and setting: next, `CC1CCN(c2nc(C(F)(F)F)ccc2CNC(=O)C(c2ccc(NS(C)(=O)=O)c(F)c2)C2CCCCC2)CC1` (stereo not drawn) [Compound 24]: greater than 100 fold; `CC1CCN(c2nc(C(F)(F)F)ccc2CNC(=O)C(c2ccc(NS(C)(=O)=O)c(F)c2)C2CCCC2)CC1` (stereo not drawn) [Compound 22]: greater than 100 fold; `Cc1ccccc1C(C(=O)NCc1ccc(C(F)(F)F)nc1SC1CCCCC1)c1ccc(NS(C)(=O)=O)c(F)c1` (stereo not drawn) [Compound 33]: greater than 140 fold.
The same measure, in the same setting: the value for `Cc1ccc(C(C(=O)NCc2ccc(C(F)(F)F)nc2SC2CCCCC2)c2ccc(NS(C)(=O)=O)c(F)c2)cc1` (stereo not drawn) [Compound 37] was 3–8 fold.
As for `Cc1cccc(C(C(=O)NCc2ccc(C(F)(F)F)nc2SC2CCCCC2)c2ccc(NS(C)(=O)=O)c(F)c2)c1` (stereo not drawn) [Compound 35], the “fold loss in antagonistic potency” value on hTRPV1 [1] turned out to be 60 fold.
`Cc1cccc(C(C(=O)NCc2ccc(C(F)(F)F)nc2N2CCC(C)CC2)c2ccc(NS(C)(=O)=O)c(F)c2)c1` (stereo not drawn) [Compound 34]: the “fold weaker potency toward the other activators compared to 1” value on hTRPV1 [2] is listed as 5–15 fold. Moreover, the “fold more potent than parent 1” value at hTRPV1 [1] (improvement over parent 1) was found to be 3 fold.
With `Cc1ccccc1C(C(=O)NCc1ccc(C(F)(F)F)nc1N1CCC(C)CC1)c1ccc(NS(C)(=O)=O)c(F)c1` (stereo not drawn) [Compound 32], the “fold loss in antagonistic potency” value on hTRPV1 [1] is recorded as greater than 140 fold.
On the same count and under the same terms, the value for `CS(=O)(=O)Nc1ccc(C(C(=O)NCc2ccc(C(F)(F)F)nc2SC2CCCCC2)C2CCCCC2)cc1F` (stereo not drawn) [Compound 25] was greater than 100 fold.
Same read-out and setting: next, `CCC(C(=O)NCc1ccc(C(F)(F)F)nc1N1CCC(C)CC1)c1ccc(NS(C)(=O)=O)c(F)c1` (stereo not drawn) [Compound 21]: 5 fold.

(Values after article PMC6957262 (Bioorganic & medicinal chemistry letters, 2015).)
